Test [1] concerns the target T1, α3 GlyR (Rattus norvegicus, UniProt P24524).
T1 sequence (P24524 34-464): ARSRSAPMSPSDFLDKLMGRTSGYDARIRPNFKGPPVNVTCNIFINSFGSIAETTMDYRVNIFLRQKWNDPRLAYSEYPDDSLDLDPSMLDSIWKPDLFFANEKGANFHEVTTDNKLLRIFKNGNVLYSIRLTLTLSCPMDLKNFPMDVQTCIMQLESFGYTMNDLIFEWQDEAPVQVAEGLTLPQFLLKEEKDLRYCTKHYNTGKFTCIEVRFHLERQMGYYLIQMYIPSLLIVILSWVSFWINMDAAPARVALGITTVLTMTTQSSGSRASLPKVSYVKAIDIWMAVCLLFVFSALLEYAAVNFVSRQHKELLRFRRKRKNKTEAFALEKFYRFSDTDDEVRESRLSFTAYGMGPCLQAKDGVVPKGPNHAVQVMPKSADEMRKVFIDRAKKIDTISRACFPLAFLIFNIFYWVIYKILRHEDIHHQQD
As to the kind of experiment: whole-cell patch clamp, potentiation of glycine current. Format: cell-based. To be noted: HEK 293 cells, allosteric potentiator, sustained application.

Test [2] deals with T1, α3 GlyR. Description: whole-cell patch clamp, glycine currents. Format: cell-based.

For `C=C(C)[C@@H]1CCC(C)=C[C@H]1c1c(O)cc(CCCCC)cc1O` [CBD, cannabidiol], on α3 GlyR [1], the “% potentiation at 1 μM” value came out at 491 ± 101%.

As to `NCC(=O)O` [glycine], the EC50 on α3 GlyR [2] worked out at 377 ± 45 µM.

Source of the values: PMC3371734 (The Journal of Experimental Medicine, 2012).
